Tests used:
[1] = tested on: MES (electroshock) seizure in mice; experiment: Anti-epilepsy activity, MES test in mouse; format: in vivo, ICR mice
Method: (§1) In the MES test (Ref., G. Villetti et al. Neuropharmacology 40(2001) 866-878), an electrical stimulus (mice: 50 mA, 60 Hz, 0.2 sec, and rats: 150 mA, 60 Hz, 0.2 sec in the test animal) supplied by an 11A Shocker (IITC Life Science Company) was delivered through corneal electrodes. All mice or rats assigned to any electroshock at peak time were treated with each test compound sample which was dissolved in 20% tween 80 prepared by saline solvent applied orally before the test. […] Three doses of the test sample were administered orally to 9-18 animals (3-6 mice per dose) for evaluating the respective doses at which 50% of the animals were protected from seizure (ED50). The ED50 value (median effective dose) was calculated by Litchfield and Wicoxon log-probit method which is a dose-response relationship. Experimental animals, male ICR mice and male SD rats, were purchased from OrientBio, Samtako, or Nara Biotech, Korea, and housed in cages (4-5 mice or 3 rats per cage) for 4-5 days. The range of mice body weight was between 19 and 25 grams and range of rats body weight was between 100 and 130 grams.

[2] = tested on: Lithium-pilocarpine induced seizure in rats; experiment: Lithium-pilocarpine induced epilepsy test (LI-PILO), prevention test; format: in vivo, Sprague-Dawley rats; details: i.p.
Method: Male Sprague-Dawley rats (purchased from Orient Bio Inc. Korea) of body weight 175 grams were used for these studies and 3 rats per cage were housed for 4-5 days. On the day prior to SE, rats received 127 mg/kg lithium chloride (Sigma, St. Louis, Mo., U.S.A.) intraperitoneally (i.p.). Approximately 18-20 h following this treatment, rats were given an i.p. injection of the concentration capable of inducing 97% intermittent convulsions pilocarpine(Sigma, 30-43 mg/kg). An i.p. injection of 2 mg/kg methyl-scopolamine (Sigma) was administered 30 min prior to pilocarpine to block the effects of the muscarinic agonist on peripheral cholinergic receptors. Test drugs were dissolved in 20% tween80 (Sigma).
The drugs were administered intraperitoneally (i.p.) in a volume of 2 μl/g body weight. Pharmacological effects of all of the test materials were evaluated to compare test groups (n=6) with a control group (n=6). Control group was administered vehicle only. The efficacy was measured 0.5, 1, 2, or 4 hours after the administration of the test material. The time point that the most animals were protected was defined as peak time and the ED50 was determined at peak time. The animals were then transferred to observation cages and observed continuously for 90 min Seizure was elicited in approximately 95% of the control group. Protection was defined as complete absence of seizure grade 3-5 (Racine scale; Racine, 1972) over the 90-min observation period. The effective dose of the compound necessary to protect 50% of the animals against seizures compared to controls (i.e., ED50) was determined by a curve fitting program (Excel 2007, Microsoft).

[3] = tested on: CFA-induced pain model in rats; experiment: Antiallodynic activity on Complete Freund's Adjuvant (CFA)-induced inflammatory pain model; format: in vivo, Sprague-Dawley rats; details: 50 mg/kg intraperitoneally, von Frey threshold relative to sham, 0.5 hr after administration; for response vs control in vivo at 50 mg/kg: Rattus norvegicus, ip, read-out: Efficacy of 50 mg/kg(%)
Method: Male, Sprague-Dawley rats (210-250 g, Nara Bio, Korea) were habituated for 1 week before surgery and allowed free access to food and water throughout the experimentation. Room temperature and humidity were maintained at 24±2 and 50±10%, respectively.
CFA-induced inflammatory pain was induced by the procedure of Nagakura et al. (2003) and Gregory P. et al. (2010) with minor modifications. CFA (sigma, USA) was injected in the right plantar with a 100 ul volume under gaseous anesthesia with isoflurane. Sham controls were injected with 100 ul of saline, and preparation of the vehicle controls were identical to the group treated with compound, except for administration of vehicles without indentical to the vihecle control group.
Tactile sensitivity (Mechanical allodynia) was evaluated using von Frey monofilaments before and after treatment, and animals were include in the study only if the withdrawal threshold value was less than 4 g. One week after CFA injection, CFA-infused animals, sham-operated animal, and vehicle-operated animals were tested for tactile sensitivity with von Frey monofilaments, with 3 trials for each animal. All Animals were placed in a stainless steel mashe chamber and habituated for 30 min in the test cage. The tactile sensitivity for ipsilateral hind paw was measured using the up-and-down method (Dixon, 1980) with seven von Frey monofilaments (0.4, 1, 2, 4, 6, 8, and 15 g) to 3 trials. The tactile sensitivity test was followed by Dixon's method (Dixon, 1980). The 50% paw withdrawal threshold for each paw was calculated using the following formula: [Xth]log=[vFr]log+ky where [vFr] is the force of the last von Frey used, k=0.2249 which is the average interval (in log units) between the von Frey monofilaments, and y is a value that depends upon the pattern of withdrawal responses (Dixon, 1980).
Antiallodynic effect of compounds was evaluated at the dose of 50 mg/kg (n=4-6), intraperitoneally administrated in a volume of 5 ul/g bw in a vehicle of 30% (v/v) PEG or 20% (v/v) Tween 80. The test was performed peak time of efficacy (0.5 hr) after compound administration.
The relative values compared to the sham (% control) were calculated and shown in Table 5, which show an antiallodynic effect of Compound 1 on CFA-induced pain model in rats.

[4] = tested on: MES (electroshock) seizure in rats; experiment: Anti-epilepsy activity, MES test in rats; format: in vivo, SD rats; details: for ED50: Rattus norvegicus, po; for MES test (po) efficacy %: dose 10 mg/kg
Method: as §1

[5] = tested on: PTZ (Pentylenetetrazol)-induced clonic seizure in rats; experiment: Anti-epilepsy activity, scPTZ test in rats; format: in vivo, SD rats
Excerpt: (§2) In this experiment, each test compound sample was formulated as described in Biological Experimental Example 1, and administered intraperitoneally to the test animals (mice; ICR or Rat; SD); Experimental animals, male ICR mice and male SD rats, were purchased from OrientBio or Nara biotech, Korea, and housed 4-5 mice per a cage for 4-5 days. The range of mice body weight was used between 19 and 26 grams and range of rats body weight was used between 100 and 130 grams. After Peak time (0.5, 1, 2 and 4 hr) from the administration, PTZ (Pentylenetetrazol) was administered subcutaneously in the concentration capable of inducing 97% intermittent convulsions (mice: 100-110 mg/kg?bw, 10 μl/g, or rats: 90-110 mg/kg?bw, 2 μl/g). If clonic seizure was not observed for at least 30 minutes in the PTZ administered animal, it can be considered that the test compound has anti-epilepsy activity. The median effective dose (ED50) is determined using 6 animals per a concentration (total three different concentrations), and calculated by Litchfield and Wicoxon log-probit method which is a dose-response relationship.

[6] = tested on: ICR mice, tail-flick analgesia meter; experiment: Tail-flick test; format: in vivo; details: orally, withdrawal latency
Method: To examine the pain relief effect of the carbamate compounds, a tail-flick test was conducted, referring to Current Protocols in Neuroscience; Behavioral Neuroscience Unit 8.9.
ICR mice (male, 25-30g; Orient Bio, Korea) were habituated before test (in test room) for 1 hour. Animals were fasted 2 hr before administration of compounds. Each of Compound was orally administered at the 1-3 dose, 10 ul/g, by bodyweight (n=4-6/group). All compounds were dissolved in a vehicle of 30% (v/v) PEG 400 or 20% (v/v) Tween 80. The control group was treated the vehicle without compounds.
After the administration of compounds, the mice tail were put on a tail-flick analgesia meter. To avoid tissue damage, maximal exposure time to pain stimuli was restricted to 15 s. The withdrawal latency was measured to the time to the point when each mouse responded. The relative values compared to the control (% control) were calculated.
The relative values compared to the sham were calculated and shown in Table 7, which show effect of the compound of examples on tail-flick test in Mice.

[7] = tested on: PTZ (Pentylenetetrazol)-induced clonic seizure in mice; experiment: Anti-epilepsy activity, scPTZ test in mouse; format: in vivo, ICR mice
Excerpt: as §2

[8] = tested on: acetic acid-induced writhes in ICR mice; experiment: Writhing test (acetic acid); format: in vivo; details: Mus musculus, po
Method: To examine the pain relief effect of the carbamate compounds, a writhing test was conducted, referring to Fischer, L. G. et al. (2008).
ICR mice (male, 24-28g; Orient Bio, Korea) were habituated before test (in test room) for 1 hour. Animals were fasted 2 hr before administration of compounds. Each of compounds was orally administered at the three dose, 10 ul/g, bw (n=3-5/group). All compounds were dissolved in a vehicle of 30% (v/v) PEG 400 or 20% (v/v) Tween 80. The control group was treated the vehicle without compounds.
0.2-2 hour after the administration of compounds, 0.6% acetic acid at the dose of 10 ul/g by bodyweight was injected into the mice Animals were habituated in the cage for 5 min. 5 min after habituation, the number of writhes (abdominal constriction) was counted for 15 min, referring to Korzeniewska-Rybicka, I. et al. (1998) and compared with that of a control.
The relative values compared to the control (% control) were calculated and shown in […]

[9] = po, read-out: MES test (po) efficacy %

Compound	Lithium pilocarpine model (pre) efficacy % ([2]; dose 100 mg/kg) [%]	response vs control in vivo at 50 mg/kg [3] [%]	ED50 ([1]; po) [mg/kg]	ED50 [4] [mg/kg]	also measured
COCO[C@H]1c2c(Cl)cccc2CC[C@H]1OC(N)=O [Example 40, (1S, 2R)-8-chloro-1-(methoxymethoxy)-1,2,3,4-tetrahydronaphthalen-2-yl carbamate]	66.6				responders at 100 mg/kg [1, 9]: 100%
NC(=O)O[C@@H]1Cc2cccc(Cl)c2[C@@H]1O [Example 51, (1S, 2R)-7-chloro-1-hydroxy-2,3-dihydro-1H-inden-2-yl carbamate]		40.1	37	17.1	scPTZ test (ip) efficacy % ([5]; dose 100 mg/kg): 100 (33.3%,
NC(=O)O[C@H]1c2c(Cl)cccc2C[C@H]1O [Example 63, (1S, 2R)-7-chloro-2-hydroxy-2,3-dihydro-1H-inden-1-yl carbamate]		53.1	51.9	19.1	scPTZ test (ip) efficacy % ([5]; dose 100 mg/kg): 100 (83.3%,
NC(=O)O[C@@H]1CCc2cccc(F)c2[C@@H]1O [Example 10, (1S, 2R)-8-fluoro-1-hydroxy-1,2,3,4-tetrahydronaphthalen-2-yl carbamate]	66.6	35.2		17.5	responders at 100 mg/kg [1, 9]: 100%
NC(=O)O[C@@H]1Cc2cccc(F)c2[C@@H]1O [Example 55, (1S, 2R)-7-fluoro-1-hydroxy-2,3-dihydro-1H-inden-2-yl carbamate]	33.3	34.4	51.9		
NC(=O)O[C@@H]1c2c(Cl)cccc2C[C@@H]1O [Example 64, (1R, 2S)-7-chloro-2-hydroxy-2,3-dihydro-1H-inden-1-yl carbamate]	50	43.7	48.4	17.8	Tail-flick test Dose [6]: >200 mg/kg; scPTZ test (ip) efficacy % ([5]; dose 50 mg/kg): 50%
NC(=O)O[C@H]1Cc2cccc(Cl)c2[C@@H]1O [Example 54, (1S, 2S)-7-chloro-1-hydroxy-2,3-dihydro-1H-inden-2-yl carbamate]	83.3		26.7		Tail-flick test Dose [6]: >200 mg/kg; MES test (po) efficacy % [4]: 33.3%
NC(=O)O[C@H]1CCc2cccc(Cl)c2[C@@H]1O [Example 5, (1S, 2S)-8-chloro-1-hydroxy-1,2,3,4-tetrahydronaphthalen-2-yl carbamate]		30			responders at 100 mg/kg [1, 9]: 100%; PTZ test (ip) efficacy % ([7]; dose 100 mg/kg): 100(16.6%)
8-chloro-1-hydroxy-1,2,3,4-tetrahydronaphthalen-2-yl carbamate (mixture of SR & RS) [Example 3]					Efficacy of 50 mg/kg(%) [3]: 22.9%; MES test (po) ED50 [1]: 27.3 mg/kg; MES test (po) ED50 [4]: 12.1 mg/kg; PTZ test (ip) ED50 [7]: 25.2 mg/kg
NC(=O)O[C@H]1c2c(Cl)cccc2CC[C@H]1O [Example 18, (1S, 2R)-8-chloro-2-hydroxy-1,2,3,4-tetrahydronaphthalen-1-yl carbamate]	16.6	50.2	45.8	18.8	ED50 [8]: 55.6 mg/kg; scPTZ test (ip) efficacy % ([5]; dose 50 mg/kg): 50 (33.3%,
NC(=O)O[C@H]1c2c(F)cccc2CC[C@H]1O [Example 25, (1S, 2R)-8-fluoro-2-hydroxy-1,2,3,4-tetrahydronaphthalen-1-yl carbamate]					responders at 50 mg/kg ([1]; po, dose 50 mg/kg, read-out: MES test (po) efficacy %): 75%; MES test (po) efficacy % [4]: 33.3%; Lithium pilocarpine model (pre) efficacy % ([2]; dose 10 mg/kg): 33.3%
